Assay results reported in patent US11219603B2, “Stable dosage form of etidronate-cytarabine conjugate, and use thereof” (MAXWELL BIOTECH GROUP LTD., priority 2015, dated 2022).

Tests used:
Format in all cases: physicochemical
[1] = Effect of MgCl2 on hydrolysis of MBC-11 in solution (formation of Ara-CMP at 25° C.); conditions: for Content of Ara-CMP (%): 25° C.
Procedure: Studies were performed, where magnesium chloride was investigated as a stabilizer against hydrolytic decomposition. MgCl2 was added to solutions of MBC-11 conjugate in water, tartrate buffer (50 mmol/L, pH 5) and succinate buffer (50 mmol/L, pH 5). The following molar ratios of MgCl2 to MBC-11 were used: (1:2), (1:1), (2:1) and higher (˜12:1). […]

[2] = Hydrolysis rate constant with MgCl2 or CaCl2 as stabilizer; conditions: for hydrolysis rate constant (K): in water
Description: The use of calcium chloride as a stabilizer against hydrolytic decomposition in both buffer solutions and water was also investigated; the hydrolysis rate constant was compared with the constant for MgCl2. […] If molar ratios were less than 2:1, the hydrolysis rate was lower for solutions containing MgCl2.

[3] = Compatibility with media for intravenous administration (Ara-CMP increase); conditions: 25 mg/mL MBC-11, MgCl2:MBC-11 2:1, dextran 5%, diluted to 1 mg/mL in D5W; within one day
[4] = Physical and hydrolytic stability of reconstituted lyophilizates in intravenous media; conditions: reconstituted lyophilizate, low dose in D5W, 25° C., 6 hours
Procedure: The lyophilized dosage form was evaluated for compatibility with three different media for intravenous administration within 24 hours: sterile water for injection (SWFI), D5W and 0.9% sodium chloride solution. […] The lyophilized dosage form was first dissolved in 5 mL SWFI to the MBC-11 trisodium salt concentration of 20 mg/mL, and then it was placed in glass vials and diluted with each medium for intravenous administration until the infusion doses under study were obtained. The solutions thus obtained were kept at 2-8° C. and 25° C. for 24 hours, and the evaluation of the samples in appearance, content and purity at the points t=0, 2, 4, 6 and 24 hours was performed.
At each control point, solutions for intravenous administration with a high dosage were evaluated in appearance, after which they were diluted to a nominal analytical concentration of 1 mg/mL with a solvent used in the analytical method for evaluating the substance purity. The samples thus obtained were used to determine the purity and content of the active pharmaceutical ingredient.

SMILES: CC(O)(P(=O)(O)O)P(=O)(O)OP(=O)(O)OC[C@H]1O[C@@H](n2ccc(N)nc2=O)[C@@H](O)[C@@H]1O (some centres unmarked) [MBC-11]
- Content of Ara-CMP (%) ([1]; Succinate buffer, MgCl2 0.87 mmol/L, MgCl2:MBC-11 1:2, t = 0 h): 2.6%
- Content of Ara-CMP (%) ([1]; Succinate buffer, MgCl2 0.87 mmol/L, MgCl2:MBC-11 1:2, t = 4 h): 3.5%
- Content of Ara-CMP (%) ([1]; Succinate buffer, MgCl2 0.87 mmol/L, MgCl2:MBC-11 1:2, t = 8 h): 4.4%
- Content of Ara-CMP (%) ([1]; Succinate buffer, MgCl2 0.87 mmol/L, MgCl2:MBC-11 1:2, t = 24 h): 7.9%
- Content of Ara-CMP (%) ([1]; Succinate buffer, MgCl2 1.73 mmol/L, MgCl2:MBC-11 1:1, t = 0 h): 2.5%
- Content of Ara-CMP (%) ([1]; Succinate buffer, MgCl2 1.73 mmol/L, MgCl2:MBC-11 1:1, t = 4 h): 3.1%
- Content of Ara-CMP (%) ([1]; Succinate buffer, MgCl2 1.73 mmol/L, MgCl2:MBC-11 1:1, t = 8 h): 3.7%
- Content of Ara-CMP (%) ([1]; Succinate buffer, MgCl2 1.73 mmol/L, MgCl2:MBC-11 1:1, t = 24 h): 5.6%
- Content of Ara-CMP (%) ([1]; Succinate buffer, MgCl2 3.5 mmol/L, MgCl2:MBC-11 2:1, t = 0 h): 2.6%
- Content of Ara-CMP (%) ([1]; Succinate buffer, MgCl2 3.5 mmol/L, MgCl2:MBC-11 2:1, t = 4 h): 3.1%
- Content of Ara-CMP (%) ([1]; Succinate buffer, MgCl2 3.5 mmol/L, MgCl2:MBC-11 2:1, t = 8 h): 3.7%
- Content of Ara-CMP (%) ([1]; Succinate buffer, MgCl2 3.5 mmol/L, MgCl2:MBC-11 2:1, t = 24 h): 5.8%
- Content of Ara-CMP (%) ([1]; Succinate buffer, MgCl2 20 mmol/L, MgCl2:MBC-11 ~12:1, t = 0 h): 2.5%
- Content of Ara-CMP (%) ([1]; Succinate buffer, MgCl2 20 mmol/L, MgCl2:MBC-11 ~12:1, t = 4 h): 2.7%
- Content of Ara-CMP (%) ([1]; Succinate buffer, MgCl2 20 mmol/L, MgCl2:MBC-11 ~12:1, t = 8 h): 2.9%
- Content of Ara-CMP (%) ([1]; Succinate buffer, MgCl2 20 mmol/L, MgCl2:MBC-11 ~12:1, t = 24 h): 3.6%
- Content of Ara-CMP (%) ([1]; Succinate buffer, no MgCl2, t = 0 h): 3.5%
- Content of Ara-CMP (%) ([1]; Succinate buffer, no MgCl2, t = 4 h): 5.0%
- Content of Ara-CMP (%) ([1]; Succinate buffer, no MgCl2, t = 8 h): 6.4%
- Content of Ara-CMP (%) ([1]; Succinate buffer, no MgCl2, t = 24 h): 11.5%
- Content of Ara-CMP (%) ([1]; Tartrate buffer, MgCl2 0.87 mmol/L, MgCl2:MBC-11 1:2, t = 0 h): 2.5%
- Content of Ara-CMP (%) ([1]; Tartrate buffer, MgCl2 0.87 mmol/L, MgCl2:MBC-11 1:2, t = 4 h): 3.5%
- Content of Ara-CMP (%) ([1]; Tartrate buffer, MgCl2 0.87 mmol/L, MgCl2:MBC-11 1:2, t = 8 h): 4.5%
- Content of Ara-CMP (%) ([1]; Tartrate buffer, MgCl2 0.87 mmol/L, MgCl2:MBC-11 1:2, t = 24 h): 8.4%
- Content of Ara-CMP (%) ([1]; Tartrate buffer, MgCl2 1.73 mmol/L, MgCl2:MBC-11 1:1, t = 0 h): 2.6%
- Content of Ara-CMP (%) ([1]; Tartrate buffer, MgCl2 1.73 mmol/L, MgCl2:MBC-11 1:1, t = 4 h): 3.3%
- Content of Ara-CMP (%) ([1]; Tartrate buffer, MgCl2 1.73 mmol/L, MgCl2:MBC-11 1:1, t = 8 h): 4.1%
- Content of Ara-CMP (%) ([1]; Tartrate buffer, MgCl2 1.73 mmol/L, MgCl2:MBC-11 1:1, t = 24 h): 7.3%
- Content of Ara-CMP (%) ([1]; Tartrate buffer, MgCl2 3.5 mmol/L, MgCl2:MBC-11 2:1, t = 0 h): 2.5%
- Content of Ara-CMP (%) ([1]; Tartrate buffer, MgCl2 3.5 mmol/L, MgCl2:MBC-11 2:1, t = 4 h): 3.0%
- Content of Ara-CMP (%) ([1]; Tartrate buffer, MgCl2 3.5 mmol/L, MgCl2:MBC-11 2:1, t = 8 h): 3.5%
- Content of Ara-CMP (%) ([1]; Tartrate buffer, MgCl2 3.5 mmol/L, MgCl2:MBC-11 2:1, t = 24 h): 5.5%
- Content of Ara-CMP (%) ([1]; Tartrate buffer, MgCl2 20 mmol/L, MgCl2:MBC-11 ~12:1, t = 0 h): 2.6%
- Content of Ara-CMP (%) ([1]; Tartrate buffer, MgCl2 20 mmol/L, MgCl2:MBC-11 ~12:1, t = 4 h): 2.7%
- Content of Ara-CMP (%) ([1]; Tartrate buffer, MgCl2 20 mmol/L, MgCl2:MBC-11 ~12:1, t = 8 h): 3.0%
- Content of Ara-CMP (%) ([1]; Tartrate buffer, MgCl2 20 mmol/L, MgCl2:MBC-11 ~12:1, t = 24 h): 3.8%
- Content of Ara-CMP (%) ([1]; Tartrate buffer, no MgCl2, t = 0 h): 3.8%
- Content of Ara-CMP (%) ([1]; Tartrate buffer, no MgCl2, t = 4 h): 5.3%
- Content of Ara-CMP (%) ([1]; Tartrate buffer, no MgCl2, t = 8 h): 6.6%
- Content of Ara-CMP (%) ([1]; Tartrate buffer, no MgCl2, t = 24 h): 11.7%
- Content of Ara-CMP (%) ([1]; Water, MgCl2 0.87 mmol/L, MgCl2:MBC-11 1:2, t = 0 h): 2.6%
- Content of Ara-CMP (%) ([1]; Water, MgCl2 0.87 mmol/L, MgCl2:MBC-11 1:2, t = 4 h): 3.3%
- Content of Ara-CMP (%) ([1]; Water, MgCl2 0.87 mmol/L, MgCl2:MBC-11 1:2, t = 8 h): 4.0%
- Content of Ara-CMP (%) ([1]; Water, MgCl2 0.87 mmol/L, MgCl2:MBC-11 1:2, t = 24 h): 6.8%
- Content of Ara-CMP (%) ([1]; Water, MgCl2 1.73 mmol/L, MgCl2:MBC-11 1:1, t = 0 h): 2.5%
- Content of Ara-CMP (%) ([1]; Water, MgCl2 1.73 mmol/L, MgCl2:MBC-11 1:1, t = 4 h): 2.8%
- Content of Ara-CMP (%) ([1]; Water, MgCl2 1.73 mmol/L, MgCl2:MBC-11 1:1, t = 8 h): 3.2%
- Content of Ara-CMP (%) ([1]; Water, MgCl2 1.73 mmol/L, MgCl2:MBC-11 1:1, t = 24 h): 4.6%
- Content of Ara-CMP (%) ([1]; Water, MgCl2 3.5 mmol/L, MgCl2:MBC-11 2:1, t = 0 h): 2.7%
- Content of Ara-CMP (%) ([1]; Water, MgCl2 3.5 mmol/L, MgCl2:MBC-11 2:1, t = 4 h): 2.7%
- Content of Ara-CMP (%) ([1]; Water, MgCl2 3.5 mmol/L, MgCl2:MBC-11 2:1, t = 8 h): 2.9%
- Content of Ara-CMP (%) ([1]; Water, MgCl2 3.5 mmol/L, MgCl2:MBC-11 2:1, t = 24 h): 3.7%
- Content of Ara-CMP (%) ([1]; Water, MgCl2 20 mmol/L, MgCl2:MBC-11 ~12:1, t = 0 h): 2.6%
- Content of Ara-CMP (%) ([1]; Water, MgCl2 20 mmol/L, MgCl2:MBC-11 ~12:1, t = 4 h): 2.7%
- Content of Ara-CMP (%) ([1]; Water, MgCl2 20 mmol/L, MgCl2:MBC-11 ~12:1, t = 8 h): 2.9%
- Content of Ara-CMP (%) ([1]; Water, MgCl2 20 mmol/L, MgCl2:MBC-11 ~12:1, t = 24 h): 3.5%
- increase in Ara-CMP content ([1]; previous observations (before addition of MgCl2), 8 hours at 25° C.): ~2%
- slowdown in the hydrolysis reaction ([2]; divalent metal salts added to aqueous solution in molar ratio 2:1): 90%
- hydrolysis rate constant (K) ([2]; molar ratio CaCl2 to MBC-11 2:1): 0.0005
- hydrolysis rate constant (K) ([2]; molar ratio MgCl2 to MBC-11 2:1): 0.0005
- increase in Ara-CMP content [3]: 1%
- increase in the Ara-CMP content [4]: 0.5%
